Experimental data: patent US5849745A, “N-benzylpiperazine compounds” (ADIR et Compagnie, priority 1996, dated 1998)
Structures can show the parent of a compound that is named as a salt.

Experiments:
[1] = Ability to cross the blood/brain barrier, endothelial cell/astrocyte coculture model; type: in vitro ADME; details: in vitro coculture model, 37° C.; read-out: coefficient of permeability of the blood/brain barrier (Pe) (converted)
Method: (§1) In order to study the functions of cerebral capillaries "in vitro", we developed a coculture model which allows the "in vivo" situation to be recreated. The endothelial cells of capillaries and astrocytes are cultured on either side of a filter.
(§2) The endothelial cells are cultured in the upper compartment on the filter and the astrocytes in the lower compartment on the bottom of the Petri dish.
(§3) On the day of the experiment, a solution of Ringer-HEPES (150 mM NaCl; 5.2 mM KCl; 2.2 mM CaCl2; 0.2 mM MgCl2 ·6H2 O; 6 mM NaHCO3; 5 mM HEPES; 2.8 mM glucose) is placed in the lower compartment of a 6-well dish (3 ml per well). A filter of covered with a monolayer of endothelial cells is transferred into the first well of the 6-well dish. 2 ml of the Ringer-HEPES solution containing the test compound are placed in the upper compartment of the filter. […] The experiments are performed in triplicate with filters covered with a monolayer of endothelial cells from cerebral capillaries or of collagen alone as control. They are agitated at 37° C. throughout the experiment.
(§4) In the graph clearance=f(t), measurement of the slope gives the value "PSt" where PS=permeability×surface area of the monolayer (in μl/min) for the filters covered with cerebral capillary endothelial cells. "PSf" is calculated in the same way for the control filters. The permeability for the monolayer of endothelial cells alone (PSe) is given by: [formula]
(§5) The coefficient of endothelial permeability "Pe" is calculated by dividing "PSe" by the surface area of the monolayer of endothelial cells. "Pe" is expressed in "cm/min".

[2] = test system: blood/brain barrier model (monolayer of cerebral capillary endothelial cells cocultured with astrocytes); experiment: as above; type: in vitro ADME; details: concluded from the coefficient of permeability
Method: as §1, §2, §3, §4, §5

[3] = test system: isolated rat heart (myocardium); experiment: Ischemia-reperfusion sequence on isolated rat heart (contractile function and myocytic energetic metabolic response, 31P NMR); details: 5×10^-6 M; for intracellular pH at the end of the ischemia: control falls from pH 7.2 to pH 6.0
Method: Study of the compounds of the invention on the contractile function of the myocardium and on the myocytic energetic metabolic response in the course of an ischemia-reinfusion sequence (isolated rat heart).
This study was carried out by means of the use of ^31 P NMR spectroscopy, this technique allowing the monitoring, on an isolated and infused heart, of the variation in the contents of phosphorylated compounds (ATP, phosphocreatine, inorganic phosphate) and in the intracellular pH. It allows continuous investigation of a number of variables linked with the energetic state of the myocardium and allows a comparative evaluation of the antiischemic properties of several products.
The isolated rat heart is infused aortically at a constant pressure (100 cm of water) for 30 min. and is then subjected to a partial global ischemia (coronary output reduced to 1.3% of the initial output) for 24 min., and, lastly, the heart is reinfused at constant pressure for 30 min.
Throughout the experiment, NMR spectra corresponding to 3-minute-long acquisitions are recorded. After statistical exploitation, they serve to determine the intracardial concentration of ATP, of phosphocreatine (PC) and of inorganic phosphate (Pi), as well as to evaluate the intracellular pH.
This procedure is intended to assess the effect of the presence of the product before and during the ischemia. To this end, the product is administered in the infusion medium after normoxic infusion for 20 min; it remains present in the infusion solution throughout the remainder of the experiment. A concentration of 5×10^-6 M was chosen for this comparative study.
This is intended to evaluate the effects of the products on the heart function. The heart is infused under the conditions defined above, and a catheter connected to a pressure sensor is introduced into the left ventrical (via the atrium) in order to monitor the pressure changes developed by the LV. The heart rate and the heart output are also monitored.
This is carried out in a superconducting magnet of 5.9 T in order to record the ^31 P NMR spectra. This series of experiments is intended to evaluate the impact of the product on the energetic equilibrium of the myocardium both in normoxia, in ischemia and in reinfusion.

[4] = test system: mitochondrial ATP synthesis (isolated rat liver mitochondria); experiment: Mitochondrial energy (ATP) production during experimental calcium overload (cyclosporin A), isolated rat liver mitochondria; type: biochemical; details: 1×10^-6 M
Method: Briefly, the mitochondria are extracted from rat livers. Mitochondrial respiration (1.5 mg of proteins placed in a reaction chamber) is brought about by the addition of sodium succinate, which is used as substrate (at 6×10^-4 M) and oxidative phosphorylation is triggered by the addition of ADP to the survival medium up to a final concentration of 1×10^-5 M. By recording the rates of oxygen consumption (in nmol/min./mg of mitochondrial protein) it is possible to calculate the characteristic parameters of the mitochondrial energy synthesis in the form of ATP.

| Structure (SMILES) | Papp [1] [×10⁻⁶ cm/s] | penetration into the brain (in words) [2] | intracellular pH at the end of the ischemia [3] | restoration of mitochondrial ATP synthesis [4] [%] | cytoprotective effect during an ischemia-reinfusion sequence of the myocardium, compared with trimetazidine [3] | effect on the intracellular acidosis induced by the ischemia [3] |
| --- | --- | --- | --- | --- | --- | --- |
| COc1ccc(CN2CCNCC2)c(OC)c1OC [trimetazidine, 2,3,4-trimethoxybenzylpiperazine, reference compound] | 7 | penetrates poorly into the brain | 6.35 | – | – | – |
| CCN1CCN(Cc2ccc(OC)c(OC)c2OC(=O)[C@H]2C[C@@H]2c2ccccc2)CC1 [Example 19, N-(3,4-Dimethoxy-2-E-(S,S)-phenylcyclopropylcarbonyloxy)benzyl-N'-ethylpiperazine dihydrochloride] | > 16.7 | penetrate the brain very easily | – | – | – | – |
| CCN1CCN(Cc2ccc(OC)c(OC)c2OC(=O)[C@@H]2C[C@H]2c2ccccc2)CC1 (relative stereo) [Example 1, N-(3,4-Dimethoxy-2-E-phenylcyclopropylcarbonyloxy)benzyl-N'-ethylpiperazinedihydrochloride] | > 16.7 | penetrate the brain very easily | 6.5 | 100 | greatly increased | particularly pronounced |
| CCN1CCN(Cc2ccc(OC)c(OC)c2OC(=O)[C@@H]2C[C@H]2c2ccccc2)CC1 [Example 17, N-(3,4-Dimethoxy-2-E-(R,R)-phenylcyclopropylcarbonyloxy)benzyl-N'-ethylpiperazine dihydrochloride] | > 16.7 | penetrate the brain very easily | – | – | – | – |
| COc1ccc(CN2CCN(Cc3ccccc3)CC2)c(OC(=O)[C@@H]2C[C@H]2c2ccccc2)c1OC (relative stereo) [Example 2, N-(3,4-Dimethoxy-2-E-phenylcyclopropylcarbonyloxy)benzyl-N'-benzylpiperazine dihydrochloride] | > 16.7 | penetrate the brain very easily | – | – | – | – |
